Reference: patent US7118895B2, “Process for producing aglycon by using diglycosidase and flavor-improved food containing the aglycon and converting agent to be used in the process” (Amano Enzyme Inc., priority 2000, dated 2006)

Test system: Crude diglycosidase
Test: Examination of pH in the conversion into isoflavone aglycons by diglycosidase using soybean materials
Format: biochemical, Penicillium multicolor IAM7153
Design: Decomposition efficiency of genistin family in soymilk / Decomposition efficiency of genistin family in defatted soybean / Decomposition efficiency of daidzin family in defatted soybean: concentration or dose not given beside the values
Conditions: for Decomposition efficiency of genistin family in roasted soy flour: 55° C.
Outline: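 Each soybean material (50 mg) is suspended and set to a pH between 2 and 11. Crude diglycosidase, adjusted to 1.88 AU/mL in enzyme solution of the same pH, is added, and the mixture is incubated at 55° C. Ethanol is added at 0, 1, 3 and 6 h, then supernatants go to HPLC.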

[1] = pH4.8, heat treatment of enzyme: no, reaction time 0 h
[2] = pH4.8, heat treatment of enzyme: no, reaction time 1 h
[3] = pH4.8, heat treatment of enzyme: no, reaction time 3 h
[4] = pH4.8, heat treatment of enzyme: no, reaction time 6 h
[5] = pH4.8, heat treatment of enzyme: yes, reaction time 6 h
[6] = pH6.6, heat treatment of enzyme: no, reaction time 0 h
[7] = pH6.6, heat treatment of enzyme: no, reaction time 1 h
[8] = pH6.6, heat treatment of enzyme: no, reaction time 3 h
[9] = pH6.6, heat treatment of enzyme: no, reaction time 6 h
[10] = pH6.6, heat treatment of enzyme: yes, reaction time 6 h

Decomposition efficiency of genistin family in concentrated soybean protein (pH1.6, heat treatment of enzyme: no, reaction time 0 h): 49.7%
Decomposition efficiency of genistin family in concentrated soybean protein (pH1.6, heat treatment of enzyme: no, reaction time 1 h): 50.2%
Decomposition efficiency of genistin family in concentrated soybean protein (pH1.6, heat treatment of enzyme: no, reaction time 3 h): 51.6%
Decomposition efficiency of genistin family in concentrated soybean protein (pH1.6, heat treatment of enzyme: no, reaction time 6 h): 53.3%
Decomposition efficiency of genistin family in concentrated soybean protein (pH1.6, heat treatment of enzyme: yes, reaction time 6 h): 54.4%
Decomposition efficiency of genistin family in roasted soy flour (pH2, heat treatment of enzyme no, reaction time 0 h): 50.0
Decomposition efficiency of genistin family in roasted soy flour (pH2, heat treatment of enzyme no, reaction time 1 h): 49.7
Decomposition efficiency of genistin family in roasted soy flour (pH2, heat treatment of enzyme no, reaction time 3 h): 50.7
Decomposition efficiency of genistin family in roasted soy flour (pH2, heat treatment of enzyme no, reaction time 6 h): 52.7
Decomposition efficiency of genistin family in roasted soy flour (pH2, heat treatment of enzyme yes, reaction time 6 h): 52.8
Decomposition efficiency of genistin family in soymilk (pH2.3, heat treatment of enzyme: no, reaction time 0 h): 31.5%
Decomposition efficiency of genistin family in soymilk (pH2.3, heat treatment of enzyme: no, reaction time 1 h): not detected
Decomposition efficiency of genistin family in soymilk (pH2.3, heat treatment of enzyme: no, reaction time 3 h): not detected
Decomposition efficiency of genistin family in soymilk (pH2.3, heat treatment of enzyme: no, reaction time 6 h): not detected
Decomposition efficiency of genistin family in soymilk (pH2.3, heat treatment of enzyme: yes, reaction time 6 h): 35.5%
Decomposition efficiency of genistin family in defatted soybean (pH2.6, heat treatment of enzyme: no, reaction time 0 h): 42.0%
Decomposition efficiency of genistin family in defatted soybean (pH2.6, heat treatment of enzyme: no, reaction time 1 h): 36.3%
Decomposition efficiency of genistin family in defatted soybean (pH2.6, heat treatment of enzyme: no, reaction time 3 h): 20.3%
Decomposition efficiency of genistin family in defatted soybean (pH2.6, heat treatment of enzyme: no, reaction time 6 h): 20.1%
Decomposition efficiency of genistin family in defatted soybean (pH2.6, heat treatment of enzyme: yes, reaction time 6 h): 44.3%
Decomposition efficiency of genistin family in concentrated soybean protein (pH2.7, heat treatment of enzyme: no, reaction time 0 h): 49.7%
Decomposition efficiency of genistin family in concentrated soybean protein (pH2.7, heat treatment of enzyme: no, reaction time 1 h): 23.1%
Decomposition efficiency of genistin family in concentrated soybean protein (pH2.7, heat treatment of enzyme: no, reaction time 3 h): 22.1%
Decomposition efficiency of genistin family in concentrated soybean protein (pH2.7, heat treatment of enzyme: no, reaction time 6 h): 17.5%
Decomposition efficiency of genistin family in concentrated soybean protein (pH2.7, heat treatment of enzyme: yes, reaction time 6 h): 50.5%
Decomposition efficiency of genistin family in roasted soy flour (pH3, heat treatment of enzyme no, reaction time 0 h): 50.0
Decomposition efficiency of genistin family in roasted soy flour (pH3, heat treatment of enzyme no, reaction time 1 h): 3.4
Decomposition efficiency of genistin family in roasted soy flour (pH3, heat treatment of enzyme no, reaction time 3 h): not detected
Decomposition efficiency of genistin family in roasted soy flour (pH3, heat treatment of enzyme no, reaction time 6 h): not detected
Decomposition efficiency of genistin family in roasted soy flour (pH3, heat treatment of enzyme yes, reaction time 6 h): 49.9
Decomposition efficiency of genistin family in defatted soybean (pH3.4, heat treatment of enzyme: no, reaction time 0 h): 42.0%
Decomposition efficiency of genistin family in defatted soybean (pH3.4, heat treatment of enzyme: no, reaction time 1 h): not detected
Decomposition efficiency of genistin family in defatted soybean (pH3.4, heat treatment of enzyme: no, reaction time 3 h): not detected
Decomposition efficiency of genistin family in defatted soybean (pH3.4, heat treatment of enzyme: no, reaction time 6 h): not detected
Decomposition efficiency of genistin family in defatted soybean (pH3.4, heat treatment of enzyme: yes, reaction time 6 h): 44.3%
Decomposition efficiency of genistin family in soymilk (pH3.5, heat treatment of enzyme: no, reaction time 0 h): 31.5%
Decomposition efficiency of genistin family in soymilk (pH3.5, heat treatment of enzyme: no, reaction time 1 h): not detected
Decomposition efficiency of genistin family in soymilk (pH3.5, heat treatment of enzyme: no, reaction time 3 h): not detected
Decomposition efficiency of genistin family in soymilk (pH3.5, heat treatment of enzyme: no, reaction time 6 h): not detected
Decomposition efficiency of genistin family in soymilk (pH3.5, heat treatment of enzyme: yes, reaction time 6 h): 37.0%
Decomposition efficiency of genistin family in concentrated soybean protein (pH3.7, heat treatment of enzyme: no, reaction time 0 h): 50.7%
Decomposition efficiency of genistin family in concentrated soybean protein (pH3.7, heat treatment of enzyme: no, reaction time 1 h): not detected
Decomposition efficiency of genistin family in concentrated soybean protein (pH3.7, heat treatment of enzyme: no, reaction time 3 h): not detected
Decomposition efficiency of genistin family in concentrated soybean protein (pH3.7, heat treatment of enzyme: no, reaction time 6 h): not detected
Decomposition efficiency of genistin family in concentrated soybean protein (pH3.7, heat treatment of enzyme: yes, reaction time 6 h): 50.6%
Decomposition efficiency of genistin family in roasted soy flour (pH4, heat treatment of enzyme no, reaction time 0 h): 49.9
Decomposition efficiency of genistin family in roasted soy flour (pH4, heat treatment of enzyme no, reaction time 1 h): not detected
Decomposition efficiency of genistin family in roasted soy flour (pH4, heat treatment of enzyme no, reaction time 3 h): not detected
Decomposition efficiency of genistin family in roasted soy flour (pH4, heat treatment of enzyme no, reaction time 6 h): not detected
Decomposition efficiency of genistin family in roasted soy flour (pH4, heat treatment of enzyme yes, reaction time 6 h): 50.2
Decomposition efficiency of genistin family in defatted soybean [1]: 40.5%
Decomposition efficiency of genistin family in soymilk [1]: 31.7%
Decomposition efficiency of genistin family in defatted soybean [2]: not detected
Decomposition efficiency of genistin family in soymilk [2]: not detected
Decomposition efficiency of genistin family in defatted soybean [3]: not detected
Decomposition efficiency of genistin family in soymilk [3]: not detected
Decomposition efficiency of genistin family in defatted soybean [4]: not detected
Decomposition efficiency of genistin family in soymilk [4]: not detected
Decomposition efficiency of genistin family in defatted soybean [5]: 31.8%
Decomposition efficiency of genistin family in soymilk [5]: 37.8%
Decomposition efficiency of genistin family in roasted soy flour (pH5, heat treatment of enzyme no, reaction time 0 h): 49.9
Decomposition efficiency of genistin family in roasted soy flour (pH5, heat treatment of enzyme no, reaction time 1 h): not detected
Decomposition efficiency of genistin family in roasted soy flour (pH5, heat treatment of enzyme no, reaction time 3 h): not detected
Decomposition efficiency of genistin family in roasted soy flour (pH5, heat treatment of enzyme no, reaction time 6 h): not detected
Decomposition efficiency of genistin family in roasted soy flour (pH5, heat treatment of enzyme yes, reaction time 6 h): 52.6
Decomposition efficiency of genistin family in concentrated soybean protein (pH5.1, heat treatment of enzyme: no, reaction time 0 h): 50.7%
Decomposition efficiency of genistin family in concentrated soybean protein (pH5.1, heat treatment of enzyme: no, reaction time 1 h): not detected
Decomposition efficiency of genistin family in concentrated soybean protein (pH5.1, heat treatment of enzyme: no, reaction time 3 h): not detected
Decomposition efficiency of genistin family in concentrated soybean protein (pH5.1, heat treatment of enzyme: no, reaction time 6 h): not detected
Decomposition efficiency of genistin family in concentrated soybean protein (pH5.1, heat treatment of enzyme: yes, reaction time 6 h): 51.4%
Decomposition efficiency of genistin family in defatted soybean (pH5.4, heat treatment of enzyme: no, reaction time 0 h): 40.5%
Decomposition efficiency of genistin family in defatted soybean (pH5.4, heat treatment of enzyme: no, reaction time 1 h): not detected
Decomposition efficiency of genistin family in defatted soybean (pH5.4, heat treatment of enzyme: no, reaction time 3 h): not detected
Decomposition efficiency of genistin family in defatted soybean (pH5.4, heat treatment of enzyme: no, reaction time 6 h): not detected
Decomposition efficiency of genistin family in defatted soybean (pH5.4, heat treatment of enzyme: yes, reaction time 6 h): 6.2%
Decomposition efficiency of genistin family in soymilk (pH6.2, heat treatment of enzyme: no, reaction time 0 h): 31.7%
Decomposition efficiency of genistin family in soymilk (pH6.2, heat treatment of enzyme: no, reaction time 1 h): not detected
Decomposition efficiency of genistin family in soymilk (pH6.2, heat treatment of enzyme: no, reaction time 3 h): not detected
Decomposition efficiency of genistin family in soymilk (pH6.2, heat treatment of enzyme: no, reaction time 6 h): not detected
Decomposition efficiency of genistin family in soymilk (pH6.2, heat treatment of enzyme: yes, reaction time 6 h): 38.3%
Decomposition efficiency of genistin family in roasted soy flour (pH6.5, heat treatment of enzyme no, reaction time 0 h): 49.4
Decomposition efficiency of genistin family in roasted soy flour (pH6.5, heat treatment of enzyme no, reaction time 1 h): not detected
Decomposition efficiency of genistin family in roasted soy flour (pH6.5, heat treatment of enzyme no, reaction time 3 h): not detected
Decomposition efficiency of genistin family in roasted soy flour (pH6.5, heat treatment of enzyme no, reaction time 6 h): not detected
Decomposition efficiency of genistin family in roasted soy flour (pH6.5, heat treatment of enzyme yes, reaction time 6 h): 54.8
Decomposition efficiency of genistin family in concentrated soybean protein [6]: 50.4%
Decomposition efficiency of genistin family in defatted soybean [6]: 39.2%
Decomposition efficiency of genistin family in concentrated soybean protein [7]: 13.9%
Decomposition efficiency of genistin family in defatted soybean [7]: not detected
Decomposition efficiency of genistin family in concentrated soybean protein [8]: 3.8%
Decomposition efficiency of genistin family in defatted soybean [8]: not detected
Decomposition efficiency of genistin family in concentrated soybean protein [9]: 1.7%
Decomposition efficiency of genistin family in defatted soybean [9]: not detected
Decomposition efficiency of genistin family in concentrated soybean protein [10]: 53.2%
Decomposition efficiency of genistin family in defatted soybean [10]: 7.7%
Decomposition efficiency of genistin family in soymilk (pH7.2, heat treatment of enzyme: no, reaction time 0 h): 31.2%
Decomposition efficiency of genistin family in soymilk (pH7.2, heat treatment of enzyme: no, reaction time 1 h): not detected
Decomposition efficiency of genistin family in soymilk (pH7.2, heat treatment of enzyme: no, reaction time 3 h): not detected
Decomposition efficiency of genistin family in soymilk (pH7.2, heat treatment of enzyme: no, reaction time 6 h): not detected
Decomposition efficiency of genistin family in soymilk (pH7.2, heat treatment of enzyme: yes, reaction time 6 h): 38.9%
Decomposition efficiency of genistin family in defatted soybean (pH7.8, heat treatment of enzyme: no, reaction time 0 h): 40.4%
Decomposition efficiency of genistin family in defatted soybean (pH7.8, heat treatment of enzyme: no, reaction time 1 h): 15.7%
Decomposition efficiency of genistin family in defatted soybean (pH7.8, heat treatment of enzyme: no, reaction time 3 h): 12.3%
Decomposition efficiency of genistin family in defatted soybean (pH7.8, heat treatment of enzyme: no, reaction time 6 h): 11.4%
Decomposition efficiency of genistin family in defatted soybean (pH7.8, heat treatment of enzyme: yes, reaction time 6 h): 37.5%
Decomposition efficiency of genistin family in roasted soy flour (pH8.5, heat treatment of enzyme no, reaction time 0 h): 55.8
Decomposition efficiency of genistin family in roasted soy flour (pH8.5, heat treatment of enzyme no, reaction time 1 h): 28.7
Decomposition efficiency of genistin family in roasted soy flour (pH8.5, heat treatment of enzyme no, reaction time 3 h): 19.2
Decomposition efficiency of genistin family in roasted soy flour (pH8.5, heat treatment of enzyme no, reaction time 6 h): 14.5
Decomposition efficiency of genistin family in roasted soy flour (pH8.5, heat treatment of enzyme yes, reaction time 6 h): 59.5
Decomposition efficiency of genistin family in concentrated soybean protein (pH8.6, heat treatment of enzyme: no, reaction time 0 h): 53.8%
Decomposition efficiency of genistin family in concentrated soybean protein (pH8.6, heat treatment of enzyme: no, reaction time 1 h): 50.4%
Decomposition efficiency of genistin family in concentrated soybean protein (pH8.6, heat treatment of enzyme: no, reaction time 3 h): 45.1%
Decomposition efficiency of genistin family in concentrated soybean protein (pH8.6, heat treatment of enzyme: no, reaction time 6 h): 36.3%
Decomposition efficiency of genistin family in concentrated soybean protein (pH8.6, heat treatment of enzyme: yes, reaction time 6 h): 56.2%
Decomposition efficiency of genistin family in soymilk (pH11.6, heat treatment of enzyme: no, reaction time 0 h): 34.8%
Decomposition efficiency of genistin family in soymilk (pH11.6, heat treatment of enzyme: no, reaction time 1 h): not detected
Decomposition efficiency of genistin family in soymilk (pH11.6, heat treatment of enzyme: no, reaction time 3 h): not detected
Decomposition efficiency of genistin family in soymilk (pH11.6, heat treatment of enzyme: no, reaction time 6 h): not detected
Decomposition efficiency of genistin family in soymilk (pH11.6, heat treatment of enzyme: yes, reaction time 6 h): 41.3%
SMILES: O=c1c(-c2ccc(O)cc2)coc2cc(O[C@@H]3O[C@H](CO)[C@@H](O)[C@H](O)[C@H]3O)cc(O)c12 [genistin]
